Measurements as given in patent publication US20250059604A1, “BIOMARKERS AND METHODS RELATED TO FRAGILE X SYNDROME” (University of Massachusetts, priority 2021, published 2025).
Values joined by “and” are separate entries in the source; they are usually repeats but may differ in a detail not shown here. Equal values may be shown once. Read-outs that look alike come from different tables or passages of the source.

What was measured:
[1] = test system: FMR1 RNA (full-length FMR1 and FMR1-217) in FXS1 and FXS2 LCLs; test: 5-AzadC treatment of FXS lymphoblast cell lines, RT-qPCR of full-length FMR1 and FMR1-217 RNA relative to GAPDH; assay type: cell-based, human; details: 1 μM, seven days, RT-qPCR normalized to GAPDH
Protocol: One μg of total RNA was primed with oligo(dT)20 to generate cDNA with a QuantiTect cDNA synthesis kit (Qiagen, #205311) using random hexamers. qPCR was performed using the iTaq™ Universal SYBR® Green Supermix (BIO-RAD #1725122) on a QuantStudio 3 qPCR machine in duplicate.
Lymphoblast cell lines (LCL) were obtained from Coriell Institute from two FXS individuals (GM07365 (FXS1), GM06897 (FXS2)) and two typically developing control males (GM07174 (WT3), GM06890 (WT4)). Cells were cultured in RPMI 1640 medium (Sigma-Aldrich), supplemented with 15% fetal bovine serum (FBS) and 2.5% L-glutamine at 37° C. with 5% CO2 in T25 flasks.
For each cell culture, 30×10^5 cells/ml were added to a final volume of 20 ml media (RPMI1640 medium (Sigma-Aldrich) supplemented with 15% fetal bovine serum (FBS) and 2.5% L-glutamine at 37° C. with 5% C02) per T25 flask. 5-Aza-2′-deoxycytidine (5-AzadC) (Sigma-Aldrich, A3656) was added to the cell cultures (final concentration 1 μM) for 7 consecutive days. A 2 mM stock of 5-AzadC was made in DMSO. For each cell line, two independent treatments were performed (n=2). For the no treatment controls for each cell line, DMSO was added to the flasks. For samples with both 5-AzadC and ASO treatment, 80 nM or 160 nM ASOs or vehicle were added on Day 1 and either 5-AzadC or DMSO was added each day from Day 2 up to Day 9 at a final concentration of 1 μM. On Day 9 the cells were collected in 1× phosphate buffered saline to proceed with RNA extraction or Western blotting.
DNA methylation of the CpG island upstream of the FMR1 gene promoter in FXS individuals (MFM, Methylated full mutation) contributes to transcriptional silencing of the locus and loss of FMRP. FMR1 transcription can be reactivated by treatment with the nucleoside analogue 5-AzadC (5-aza-2′-deoxycytidine), which inhibits DNA methylation (Tabolacci et al., 2016b, 2016a). […] Next, FXS1 and FXS2 cell lines were treated with the 5-AzadC and then measured FMR1 RNA and FMRP levels. […]

[2] = test system: FMR1 transcripts (total, FMR1-205, FMR1-217) in FXS-NSC; details: FXS iPSC-derived NSCs, re-analyzed from RNA-seq data of Vershkov et al., cited from earlier work
FMRP = test: 5-AzadC treatment of FXS lymphoblast cell lines, western blot of FMRP relative to GAPDH; assay type: cell-based, human; details: FXS1 and FXS2 LCLs, 5-AzadC vs DMSO
Protocol: For each cell culture, 30×10^5 cells/ml were added to a final volume of 20 ml media (RPMI1640 medium (Sigma-Aldrich) supplemented with 15% fetal bovine serum (FBS) and 2.5% L-glutamine at 37° C. with 5% C02) per T25 flask. 5-Aza-2′-deoxycytidine (5-AzadC) (Sigma-Aldrich, A3656) was added to the cell cultures (final concentration 1 μM) for 7 consecutive days. A 2 mM stock of 5-AzadC was made in DMSO. For each cell line, two independent treatments were performed (n=2). For the no treatment controls for each cell line, DMSO was added to the flasks. […]
Cells were homogenized at 4° C. in RIPA buffer, with incubation on ice for 10 minutes and dissociation by pipetting. […] Protein concentration was determined using BCA reagent. Proteins ([…]) were diluted in SDS-bromophenol blue reducing buffer with 40 mM DTT and analyzed using western blotting with the following antibodies: FMRP (Millipore, mAb2160, 1:1,000), FMRP (Abcam, ab17722, 1:1,000) and GAPDH (14C10, Cell Signaling Technology, mAb 2118, 1:2,000), diluted in 1× TBST with 5% non-fat milk. […]
DNA methylation of the CpG island upstream of the FMR1 gene promoter in FXS individuals (MFM, Methylated full mutation) contributes to transcriptional silencing of the locus and loss of FMRP. […] Next, FXS1 and FXS2 cell lines were treated with the 5-AzadC and then measured FMR1 RNA and FMRP levels. […]

[3] = FXS1 LCL (GM07365, fully methylated)

Structure (SMILES): Nc1ncn([C@H]2C[C@H](O)[C@@H](CO)O2)c(=O)n1 [5-AzadC, 5-Aza-2′-deoxycytidine]
- FMR1-217 RNA relative to DMSO-treated cells [1, 3]: significant increases
- full-length FMR1 RNA relative to DMSO-treated cells [1, 3]: significant increases
- full-length FMR1 and FMR1-217 RNA relative to DMSO-treated cells ([1]; FXS2 LCL (GM06897, partially methylated)): increase of only full-length FMR1 RNA
- FMR1 (Total) reads ([2]; biologic duplicates): 9.9 TPM and 6.1 TPM
- FMR1-217 reads ([2]; biologic duplicates): 6.9 TPM and 3.9 TPM
- FMR1-217 expression (RNA-seq reads), in words [2]: strong FMR1-217 expression was observed only in the 5-AzadC-treated cells
- total FMR1 and FMR1-205 expression (RNA-seq reads), in words [2]: strong total FMR1 and FMR1-205 expression
- FMR1-217 expression (RNA-seq reads), in words ([2]; listed as 5-azadC): FMR1-217 reads are detected only in the 5-azadC-treated samples
- FMRP level (FMRP/GAPDH, western blot) (FMRP): In neither cell line did 5-AzadC treatment induce an increase in FMRP
